Measured values from ChEMBL document CHEMBL3228040 (J Med Chem, 1979).
The source made the active and inactive calls. The calls are words filed in the database; no cut-off is given here.

Assays:
Opioid receptor = Opioid receptor (Rattus norvegicus, UniProt P33533+P34975+P33535); experiment: Displacement of radiolabeled dihydromorphine from opioid receptor in rat brain homogenates; format: tissue-based
Mus musculus [1] = experiment: Analgesic activity in sc dosed mouse by hot plate assay; format: functional
Rhesus monkey [2] = experiment: Effect on physical dependence capacity in morphine-dependent rhesus monkey at 20 mg/kg by single-dose suppression test; format: functional, organism-based; parameters: dose 20 mg/kg; conditions: Macaca mulatta
Mus musculus [3] = organism: Mus musculus; experiment: Analgesic activity in mouse by Nilsen assay; format: functional
Rhesus monkey [4] = experiment: Effect on physical dependence capacity in morphine-dependent rhesus monkey assessed as partial suppression of abstinence signs at 20 to 40 mg/kg by single-dose suppression test; format: functional, organism-based; conditions: Macaca mulatta
Mus musculus [5] = organism: Mus musculus; experiment: (§1) Analgesic activity in mouse by tail flick assay; format: functional
Mus musculus [6] = organism: Mus musculus; experiment: Analgesic activity in mouse assessed as inhibition of PPQ-induced writhing; format: functional
Rhesus monkey [7] = experiment: Effect on physical dependence capacity in morphine-dependent rhesus monkey at 1.2 mg/kg by single-dose suppression test; format: functional, organism-based; parameters: dose 1.2 mg/kg; conditions: Macaca mulatta
Mus musculus [8] = organism: Mus musculus; experiment: as §1; format: functional, organism-based
Rhesus monkey [9] = experiment: Effect on physical dependence capacity in morphine-dependent rhesus monkey up to 16 mg/kg by single-dose suppression test; format: functional, organism-based; parameters: dose 16 mg/kg; conditions: Macaca mulatta

CCOC(=O)C1(c2ccccc2)CCN(CCC#N)CC1
EC50 (Opioid receptor): 8000 nM | ED50 (Mus musculus [1]): 100 mg/kg | Activity (Rhesus monkey [2]): inactive

CCC(=O)C1(c2cccc(O)c2)CCN(CCC#N)CC1
ED50 (Mus musculus [3]): > 50 mg/kg | EC50 (Opioid receptor): 1500 nM | Activity (Rhesus monkey [4]): Active

CC[C@H]1C2Cc3ccc(O)cc3[C@@]1(C)CCN2C (mixture of isomers)
EC50 (Opioid receptor): 15 nM | ED50 (Mus musculus [1]): 1.3 mg/kg | ED50 (Mus musculus [5]): 6.4 mg/kg | ED50 (Mus musculus [6]): 0.2 mg/kg | Activity (Rhesus monkey [7]): Active

CC[C@H]1C2Cc3ccc(O)cc3[C@@]1(C)CCN2CCC#N (mixture of isomers)
EC50 (Opioid receptor): 4 nM | ED50 (Mus musculus [1]): 0.21 mg/kg | ED50 (Mus musculus [5]): 0.8 mg/kg | ED50 (Mus musculus [6]): 0.09 mg/kg | inhibition (Mus musculus [8]): inactive | Activity (Rhesus monkey [7]): Active

CC[C@H]1C2Cc3ccc(O)cc3[C@@]1(C)CCN2CCC(N)=O (mixture of isomers)
EC50 (Opioid receptor): 9 nM | ED50 (Mus musculus [1]): 19.3 mg/kg | Activity (Mus musculus [5]): inactive | inhibition (Mus musculus [6]): inactive | inhibition (Mus musculus [8]): inactive | Activity (Rhesus monkey [9]): inactive

CC1C2Cc3ccc(O)cc3C1(C)CCN2C (racemic)
EC50 (Opioid receptor): 9 nM | ED50 (Mus musculus [1]): 1.18 mg/kg

CCC(=O)C1(c2cccc(O)c2)CCN(C)CC1 [KETOBEMIDONE]
EC50 (Opioid receptor): 2 nM | ED50 (Mus musculus [1]): 0.8 mg/kg

CCOC(=O)C1(c2ccccc2)CCN(C)CC1 [MEPERIDINE]
ED50 (Mus musculus [1]): 4.7 mg/kg

CN1CC[C@]23c4c5ccc(O)c4O[C@H]2[C@@H](O)C=C[C@H]3[C@H]1C5 [MORPHINE]
ED50 (Mus musculus [1]): 1.2 mg/kg
